Measured values as given in patent US20230095689A1, “METHOD OF CULTURING RECONSTRUCTED HUMAN SKIN” (Korea University Research and Business Foundation, priority 2021, published 2023).

System: reconstructed human skin produced according to Example 1
Test: Evaluation of skin barrier function of reconstructed human skin with liquid surfactant (MTT, OECD Test Guideline 439)
Assay type: cell-based
Description: In order to confirm the skin barrier function of the reconstructed human skin produced according to the present invention, the skin barrier function was evaluated using the reconstructed human skin produced in the culture vessel having the inner wall coated with dopamine in Example 1. The skin barrier function was evaluated in a manner in which cell viability relative to an untreated control depending on the treatment time with 1% Triton X-100 was measured, and ET50 (Effective Time 50%), which is the time taken to reach the cell viability of 50%, was determined, according to the barrier evaluation method presented as a performance standard in OECD Test Guideline 439. […] The formazan dye thus formed was dissolved in 2 ml of 2-propanol, 200 μl thereof was placed in each of two wells of a 96-well plate, and optical density at a wavelength of 570 nm was measured using a plate reader, and each optical density of treated group was compared to those in untreated control, thereby calculating relative cell viability, and ET50 (Effective Time 50), which is the time taken to reach the cell viability of 50%, was determined.

Triton X-100
relative cell viability (1% Triton X-100 for 2, 5, 8 and 20 hours, MTT relative to untreated control): decreased depending on the treatment time | ET50 (Effective Time 50), time taken to reach the cell viability of 50% (200 μl of 1% Triton X-100 solution on upper surface, MTT, optical density at 570 nm relative to untreated control): about 4.5 hours
